From patent publication US8193200B2, “Antagonists of A2B adenosine receptors for treatment of inflammatory bowel disease” (University of Virginia Patent Foundation, priority 2007, dated 2012) come the findings set out here.

For one data set, the target named is T1, A2b receptor (Mus musculus, UniProt Q60614).
T1 construct: Murine colonic mucosal stripping from the distal colon was mounted on Ussing chamber; from tissue; host or cells: mouse distal colon mucosa, stripped of external muscle
T1 sequence (Q60614 1-332): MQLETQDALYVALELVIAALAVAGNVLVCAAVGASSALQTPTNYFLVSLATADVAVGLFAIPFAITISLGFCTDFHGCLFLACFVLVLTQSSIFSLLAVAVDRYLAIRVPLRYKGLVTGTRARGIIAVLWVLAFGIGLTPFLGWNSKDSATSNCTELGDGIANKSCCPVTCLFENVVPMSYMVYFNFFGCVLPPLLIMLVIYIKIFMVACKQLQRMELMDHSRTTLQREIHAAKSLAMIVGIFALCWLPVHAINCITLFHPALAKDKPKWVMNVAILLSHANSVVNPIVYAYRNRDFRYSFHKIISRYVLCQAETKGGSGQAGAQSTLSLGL
Description: Ussing chamber Isc (chloride secretion) in murine colonic mucosal stripping. The conditions noted are these: mouse colonic mucosa. As to the method:
Electrophysiologic studies were performed as described previously Mice were euthanized by CO2/hypothermia. The colon was removed and opened along the mesenteric border. The colon was then stripped of its external muscle by blunt dissection. A of mucosa from distal colon was used for Using chamber studies. After a sustained baseline Isc, mucosal layers were stimulated with adenosine (100 μM) and forskolin (FSK 10 μM). Antagonist was added to both bathing solutions before stimulating with adenosine.

The subject of data set [1] is myeloperoxidase (MPO) activity, neutrophil infiltration into colon. Briefly: Myeloperoxidase assay in colon, DSS colitis. The conditions noted are these: DSS 3% 6 days, ATL-801 10 mg/kg in diet. Format: in vivo, mouse. As to the method:
Neutrophil infiltration into colon was quantified by measuring myeloperoxidase (MPO) activity as described previously. One unit of MPO activity was defined as the amount that degraded 1 μmol of […] per minute at 25° C. The results were expressed as absorbance per μg of protein.

In another data set the test system is A2b receptor expression. Briefly: Western blot of A2b receptor in colonic lysates, DSS model. The class given is in vivo, mouse. The conditions noted are these: baseline and after DSS treatment. From the text:
Colonic tissue was homogenized and cell lysates were subjected to immunoblotting using anti-A2b receptor antibody (1:1000). β-tubulin was used as loading control. Blot shown is representative of 4 animals per condition.

The subject of data set [2] is colonic crypt epithelial cells. Briefly: ki67 proliferation and TUNEL apoptosis staining, IL-10-/- model. The note with it: IL-10-/- mice, piroxicam+ATL-801. The class given is in vivo, mouse. The procedure: Apoptosis: Apoptotic cells were determined in colonic crypts of the mice that received ATL-801. Apoptotic cells were identified by fluorescent double staining using caspase-3 and terminal deoxyuridine nick-end labeling (TUNEL) as a secondary method to detect apoptosis. After deparaffinization and hydration, paraffin sections of colon were retrieved for antigens in a pressure cooker with sodium citrate (pH 6.0, 10 mM) for 10 min. After cooling, the sections were quenched in 3% H2O2 in methanol and then blocked with normal goat serum. Caspase-3 was detected with rabbit anti-cleaved-caspase-3 IgG overnight at 4° C. followed by a labeled streptavidin-biotin (LSAB) staining method consisting of successive application of secondary antibody-streptavidin, biotin-horseradish peroxidase, and cyanine-3 tyramide. TUNEL immunohistochemistry was performed using the in situ cell death detection kit, fluorescein, as described by the manufacturer (Roche Applied Science, Indianapolis, Ind.). For IL-10 model, frozen sections were used to stain cleaved caspase 3 and TUNEL. Nuclei were attained by Hoechst to count total crypt cell number. The apoptotic index for both morphologically defined apoptotic cells and fluorescent staining with caspase-3 was calculated as the number of apoptotic cells per crypt. […]

Data set [3] relates to C57BL/6 mice with DSS-induced colitis. Description: DSS-induced colitis: clinical and histological scoring, colon weight and length. The class given is in vivo, mouse. The conditions noted are these: for Total Lesion Score (histological score): score range 0-11, DSS 9.1 ± 2.1. The procedure:
Colitis was induced in male C57BL/6 mice by oral administration of DSS (molecular wt. 50000; ICN Biomedicals, Aurora, Ohio) at 3% (wt/vol) in tap water ad libitum for 6 days. Age-matched male wild-type C57BL6 mice receiving tap water served as controls. Mice were observed daily and evaluated for changes in body weight and development of clinical symptoms. Mice were given ATL-801 10 mg/Kg diet approximately 20 μg/day/mice) during the administration of DSS.
Assessment of body weights, stool consistency, and the presence of occult/gross blood by a guaic test (Hemoccult Sensa; Beckman Coulter, Fullerton, Calif.) were performed daily for each mouse. Colitis was quantified with a clinical and histological score, as described by Cooper, et. al. Clinical score was based on weight loss, stool consistency, and fecal blood (score range 0-12). Histological scoring was performed based on three variables, extent of inflammatory infiltrate, mucosal ulcers and severity of crypt (score range 0-11). IL-10^−/− mouse colon histological scoring (ranging from 0 to 4) was performed as described by Berg, et. al. to assess intestinal lesions and their severity.

Turning to `CCCn1c(=O)n(C2CC2)c(=O)c2[nH]c(-c3ccc(N(CC)C(=O)c4cccnc4)nc3)nc21` [ATL-801], the “ΔIsc, ATL-801+Adenosine” value at A2b receptor (ATL-801 100 μM before adenosine 100 μM, adenosine alone 7.9 μA) turned out to be 1.9 μA. Also, the “ΔIsc, ATL-801+FSK” value on A2b receptor (ATL-801 100 μM, forskolin 10 μM) came out at 10 μA. In addition, the “MPO activity, DSS alone relative to antagonist and DSS” value in data set [1] was 5 fold. Further, the “effect on A2b receptor expression (Western blot)” value with A2b receptor expression is reported as “affected neither baseline level of A2b receptor nor DSS-induced increase in A2b receptor expression”. The “TUNEL positive cells out of total (around 500) number of cells counted in each crypt” value in data set [2] (control 4.7±1.5, piroxicam 4.3±2.3) is on record as 10±1.0. Moreover, the “proliferation index, ki67 positive staining” value in data set [2] (control 8.0±0.7, piroxicam alone 28.8±2.8) stood at 18.5±1.4. The “Ulceration (histological assessment)” value in data set [3] (3% DSS 6 days + ATL 10 mg/Kg, DSS 2.6 ± 0.6) is 1.0 ± 1. Moreover, the “Crypt Damage (histological assessment)” value in data set [3] (3% DSS 6 days + ATL 10 mg/Kg, DSS 2.8 ± 1.5) turned out to be 1.9 ± 0.6. Moreover, in data set [3] (3% DSS 6 days + ATL 10 mg/Kg, DSS 3.7 ± 0.2), the “Inflammation (histological assessment)” value was determined as 1.2 ± 0.2. For the same molecule, the “Total Lesion Score (histological score)” value in data set [3] (3% DSS 6 days + ATL 10 mg/Kg) is 4.1 ± 1.8; in data set [3] (3% DSS 6 days + ATL 10 mg/Kg, listed as antagonist), 4.1±1.8. Also, the “clinical score (clinical disease activity score)” value in data set [3] (DSS 3% 6 days + ATL-801 10 mg/Kg in diet, score range 0-12, DSS alone 9.4±1.1) worked out at 4.4±1.5. In data set [3] (DSS 6 days + antagonist 10 mg/Kg, DSS alone 4.5±0.26 cm), the colon length was determined as 6.04±0.16 cm. In addition, the colon weight in data set [3] (DSS + A2b antagonist, colon with solid stool pellets, DSS alone 0.26±0.03 g) came out at 0.48 ± 0.03 g. Further, the stool consistency result in data set [3] (DSS + A2b receptor antagonist, DSS-fed mice had watery diarrhea) is listed as “solid stools”. In addition, the “colon length, group not administered DSS” value in data set [3] (antagonist without DSS, vehicle 6.5±0.25) worked out at 7.5 cm. The “adverse effects on clinical score, ATL-801 alone” value in data set [3] (mice given ATL-801 alone, no DSS) was “did not show any adverse affects on clinical score”. Also, in data set [3] (no DSS), the “histological signs of inflammation, water control group receiving antagonist” value is “not detected”.
